Measured values reported in patent US8748423B2, “Compositions and methods for the prevention and treatment of cancer” (Kinex Pharmaceuticals, LLC, priority 2010, dated 2014).
pIC50: −log10 of the molar value. Like-named read-outs stand apart in the source and are kept apart here.

Experiments:
GL261 = assay: brain tumor cell line growth inhibition, GL261; assay type: cell-based; settings: GL261, mouse glioblastoma
Procedure: These GI50s were determined using standard tumor growth inhibition assays.

[1] = plasma and brain exposure after single oral dose; assay type: in vivo, Male CD-1 Mice; settings: for Brain Concentrations, Group A, B, C / Plasma Concentrations, Group A, B, C / concentration at 0 h: 0 hr; for Kp: brain and plasma, read-out: AUClast Brain/AUClast Plasma Ratio
Procedure: […] The concentration of Compound 76 was measured in plasma and in brain tissue homogenates.
Plasma concentrations were measured in mice after oral administration. All doses were formulated in purified water. Four groups of male CD-1 mice were dosed after an overnight fast and fed 4 hours post-dose. Dosing was as follows:
Protein was precipitated with 0.25 mL acetonitrile for plasma, 0.25 mL for brain. After centrifugation, supernatant was directly injected into an LC/MS system. The limit of quantitation was 1 ng/mL using a 50 μL aliquot for plasma and a […] aliquot for brain. The standard curve was 1 to 1,000 ng/mL for both plasma and brain.
HPLC conditions were as follows:
• HPLC System: Shimadzu SCL-10 System • Analytical Column: Aquasil C18 5 μm 100×2 mm column. • Column Temperature: Ambient temperature • Autosampler Temperature: Ambient temperature • Mobile Phase • A) 10 mM Ammonium formate in water (pH 4). • B) Acetonitrile. • Flow Rate: 0.6 mL/min • Injection Volume: 2 μL

[2] = body weight in GL261 glioma survival study; assay type: in vivo, C57BL/6 mice
Procedure: The studies were conducted in C57BL/6 mice. GL261 glioma cells (1×10^5 in 5 μl DMEM) were implanted intracranial coordinates: bregma, lateral 2.0 mm, anterior 1.2 mm, 3.0 mm depth dura. Treatment was initiated 3 days post implantation.
FIGS. 2A-F show the weight gain in each of the C57BL/6 mice in the different treatment groups. The average weight at endpoint for each of the treatment groups is shown below in Table 12. FIG. 3 is a graph showing the average weights over a 40-day period for each of the treatment groups.

[3] = PO 10 mg/kg (Group 3), single values
[4] = PO 50 mg/kg (Group 4), single values
[5] = male, CD-1, mouse, brain, po, 10 mg/kg, PO 10 mg/kg (Group 3), BLQ = 0, read-out: Brain Concentrations, Mean
[6] = male, CD-1, mouse, brain, po, 50 mg/kg, PO 50 mg/kg (Group 4), read-out: Brain Concentrations, Mean
[7] = male, CD-1, mouse, plasma, po, 10 mg/kg, PO 10 mg/kg (Group 3), read-out: Plasma Concentrations, Mean
[8] = male, CD-1, mouse, plasma, po, 50 mg/kg, PO 50 mg/kg (Group 4), read-out: Plasma Concentrations, Mean
[9] = male, CD-1, mouse, po, Brain, single dose of 50 mg/kg (Group 4)
[10] = male, CD-1, mouse, po, Plasma, single dose of 50 mg/kg (Group 4)
[11] = male, CD-1, mouse, Brain, single oral dose of 10 mg/kg
[12] = male, CD-1, mouse, Plasma, single oral dose of 10 mg/kg

With O=C(Cc1ccc(-c2ccc(N3CCOCC3)cc2)cn1)NCc1cccc(F)c1 [Compound 76] as the compound, how does the pIC50 (GL261) read?
Its pIC50 is 8.06.

What about the AUClast ([1]; Brain, single dose of 50 mg/kg (Group 4)) of the same compound?
Its AUClast is 3338 ng·h/g.

What about the AUClast ([1]; Brain, single oral dose of 10 mg/kg) of the same compound?
The AUClast was 656 ng·h/g.

What about the “Brain Concentrations, Group A, B, C” value [1, 3] of the same compound?
The value was “BLQ (Below Limit of Quantitation (1 ng/mL))”.

And the “Plasma Concentrations, Group A, B, C” value [1, 3]?
The value was “BLQ (Below Limit of Quantitation (1 ng/mL))”.

What about the “Brain Concentrations, Group A, B, C” value [1, 4] of the same compound?
The value was “BLQ (Below Limit of Quantitation (1 ng/mL))”.

What about the “Plasma Concentrations, Group A, B, C” value [1, 4] of the same compound?
Its value is “BLQ (Below Limit of Quantitation (1 ng/mL))”.

And the Kp ([1]; male, CD-1, mouse, oral 10 mg/kg)?
The Kp was 0.76.

What about the Kp ([1]; male, CD-1, mouse, oral 50 mg/kg) of the same compound?
The Kp was 0.61.

What about the concentration at 0 h [1, 5] of the same compound?
Its concentration at 0 h is 0 ng/g.

What about the concentration at 0.5 h ([1]; male, CD-1, mouse, brain, po, 10 mg/kg, PO 10 mg/kg (Group 3), 0.5 hr, read-out: Brain Concentrations, Mean) of the same compound?
Its concentration at 0.5 h is 99.8 ng/g.

And the concentration at 1 h ([1]; male, CD-1, mouse, brain, po, 10 mg/kg, PO 10 mg/kg (Group 3), 1 hr, read-out: Brain Concentrations, Mean)?
The concentration at 1 h was 279 ng/g.

What about the concentration at 1 h ([1]; male, CD-1, mouse, brain, po, 10 mg/kg, PO 10 mg/kg (Group 3), 1 hr, single values, read-out: Brain Concentrations, Group A, B, C) of the same compound?
The concentration at 1 h was 228 ng/g.

What about the concentration at 2 h ([1]; male, CD-1, mouse, brain, po, 10 mg/kg, PO 10 mg/kg (Group 3), read-out: Brain Concentrations, Mean) of the same compound?
The concentration at 2 h was 175 ng/g.

And the concentration at 5 h [1, 5]?
The concentration at 5 h was 31.8 ng/g.

And the concentration at 5 h ([1]; male, CD-1, mouse, brain, po, 10 mg/kg, PO 10 mg/kg (Group 3), single values, read-out: Brain Concentrations, Group A, B, C)?
Its concentration at 5 h is 47.5 ng/g.

What about the concentration at 0 h ([1]; male, CD-1, mouse, brain, po, 50 mg/kg, PO 50 mg/kg (Group 4), BLQ = 0, read-out: Brain Concentrations, Mean) of the same compound?
The concentration at 0 h was 0 ng/g.

And the concentration at 0.5 hr ([1]; male, CD-1, mouse, brain, po, 50 mg/kg, PO 50 mg/kg (Group 4), 0.5 hr, read-out: Brain Concentrations, Mean)?
The concentration at 0.5 hr was 1380 ng/g.

And the concentration at 1 hr ([1]; male, CD-1, mouse, brain, po, 50 mg/kg, PO 50 mg/kg (Group 4), 1 hr, read-out: Brain Concentrations, Mean)?
Its concentration at 1 hr is 1100 ng/g.

What about the concentration at 2 h [1, 6] of the same compound?
Its concentration at 2 h is 758 ng/g.

And the concentration at 5 h [1, 6]?
The concentration at 5 h was 207 ng/g.

And the concentration at 0 h ([1]; male, CD-1, mouse, plasma, po, 10 mg/kg, PO 10 mg/kg (Group 3), BLQ = 0, read-out: Plasma Concentrations, Mean)?
The concentration at 0 h was 0 ng/mL.

What about the concentration at 0.5 h ([1]; male, CD-1, mouse, plasma, po, 10 mg/kg, PO 10 mg/kg (Group 3), 0.5 hr, read-out: Plasma Concentrations, Mean) of the same compound?
The concentration at 0.5 h was 148 ng/mL.

What about the concentration at 1 h ([1]; male, CD-1, mouse, plasma, po, 10 mg/kg, PO 10 mg/kg (Group 3), 1 hr, read-out: Plasma Concentrations, Mean) of the same compound?
Its concentration at 1 h is 426 ng/mL.

And the concentration at 2 h [1, 7]?
Its concentration at 2 h is 205 ng/mL.

What about the concentration at 5 h [1, 7] of the same compound?
Its concentration at 5 h is 40 ng/mL.

What about the concentration at 0 h ([1]; male, CD-1, mouse, plasma, po, 50 mg/kg, PO 50 mg/kg (Group 4), BLQ = 0, read-out: Plasma Concentrations, Mean) of the same compound?
Its concentration at 0 h is 0 ng/mL.

And the concentration at 0.5 h ([1]; male, CD-1, mouse, plasma, po, 50 mg/kg, PO 50 mg/kg (Group 4), 0.5 hr, read-out: Plasma Concentrations, Mean)?
Its concentration at 0.5 h is 1800 ng/mL.

And the concentration at 0.5 h ([1]; male, CD-1, mouse, plasma, po, 50 mg/kg, PO 50 mg/kg (Group 4), 0.5 hr, single values, read-out: Plasma Concentrations, Group A, B, C)?
Its concentration at 0.5 h is 1490 ng/mL.

What about the concentration at 1 h ([1]; male, CD-1, mouse, plasma, po, 50 mg/kg, PO 50 mg/kg (Group 4), 1 hr, read-out: Plasma Concentrations, Mean) of the same compound?
Its concentration at 1 h is 2140 ng/mL.

And the concentration at 2 h [1, 8]?
Its concentration at 2 h is 1300 ng/mL.

And the concentration at 5 h [1, 8]?
The concentration at 5 h was 230 ng/mL.

And the Cmax [1, 9]?
Its Cmax is 1380 ng/g.

What about the Tmax [1, 9] of the same compound?
Its Tmax is 0.5 h.

What about the AUC(0-t) [1, 10] of the same compound?
Its AUC(0-t) is 5440 ng·h/mL.

And the Cmax [1, 10]?
The Cmax was 2140 ng/mL.

What about the Tmax [1, 10] of the same compound?
The Tmax was 1 h.

And the Cmax [1, 11]?
Its Cmax is 279 ng/g.

And the Tmax [1, 11]?
The Tmax was 1 h.

What about the AUC(0-t) [1, 12] of the same compound?
The AUC(0-t) was 863 ng·h/mL.

And the Cmax [1, 12]?
Its Cmax is 426 ng/mL.

What about the Tmax [1, 12] of the same compound?
The Tmax was 1 h.

What about the “brain penetration from plasma” value ([1]; single oral dose of 10 mg/kg) of the same compound?
Its value is 76%.

And the “Average weight at endpoint” value ([2]; 15 mg/kg)?
The value was 16.9 g.

And the “Average weight at endpoint” value ([2]; 30 mg/kg)?
Its value is 15.0 g.
